We go through 2 compounds from patent US20070254955A1, “Nail softener for use in deformed-nail corrective treatment or nail-structure modification, enclosure for external chemicals and method of correcting deformed nail” (priority 2003, published 2007).

For assay [1], the system named is ingrown nail. The assay can be described thus: Deformed-nail corrective treatment with nail softener (First Example, sufficiently grown ingrown nail). Type of assay: in vivo. As to conditions: nail repositioned by fingertips, immobilized with resin for one hour; FIG. 4. The text has this: With reference to the drawings, a deformed-nail correcting method using the nail softener according to one embodiment of the present invention will be described below. The cases of ingrown nails include one case of a sufficiently grown nail, and another case of a deep nail. While the deformed-nail correcting method using the nail softener of the present invention can be applied to both the cases, the first example will be described in conjunction with one case where the method is applied to a sufficiently grown nail. An emulsifying agent was first added to ammonium thioglycolate serving as a reducing agent to prepare a 5% (weight %) ammonium thioglycolate mail softener in the form of cream or paste. […] The number of the small through-hole may be changed according to the state of the nail, and may be, for example, two. The prepared nail softener was applied onto the entire surface of the nail at a thickness of about 5 mm, and left the nail untouched. After 25 minutes from the application of the nail softener to the nail, the state of the nail was checked. […] Thus, the nail softener was washed away and removed from the nail using a hot water. […] In order to maintain the corrected position, a resin 12 was attached onto the upper surface of the nail to close the small through-holes 10 formed in the front region of the nail (see FIG. 3). […]

The test system of assay [2] is ingrown nail. Kind of assay: Ingrown-nail correction with nail softener in enclosure plus superelastic alloy wire (Second Example, deep nail). Type of assay: in vivo. As to conditions: reposition by action of superelastic alloy wire. An excerpt:
With reference to the drawings, an ingrown-nail correcting method using the enclosure according to one embodiment of the present invention will be described below. As mentioned above, the cases of ingrown nails include one case of a sufficiently grown nail, and another case of a deep nail. While the deformed-nail correcting method using the enclosure of the present invention can be applied to both the cases, the second example will be described in conjunction with one case where the method is applied to a deep nail. An emulsifying agent was first added to ammonium thioglycolate serving as a reducing agent to prepare a 5% (weight %) ammonium thioglycolate mail softener in the form of cream or paste. […] The through-hole P1c was formed to fix one of the ends of a superelastic alloy wire w (see the aforementioned Patent Publication). Further, four small holes P2 serving as anchoring holes of resin r for fixing the other end of the wire were formed in the other lateral side region n2 of the nail. One of the ends of the wire w is inserted into the central through-hole p1c. Then, the wire w was folded toward the other side region n2 or a flat region, and brought into close contact with the surface of the nail. A resin r was applied onto the curved region n1 to fix one end of the wire w. An ultra-fast cure type autopolymerizing resin (GC Unifast II: trade name of GC Co.) was used as the resin. […]

With `N[C@@H](CS)C(=O)O` [cysteine], the “result of the corrective treatment (correction of the deformed nail)” value in the assay with ingrown nail [1] is reported as “substantially the same result”. For the same compound, the “result of the corrective treatment (reposition of the ingrown nail)” value in the assay with ingrown nail [2] is listed as “substantially the same result”.
As to `O=C(O)CS` [thioglycolic acid], in the assay with ingrown nail [1], the “result of the corrective treatment (correction of the deformed nail)” value is reported as “substantially the same result”. For the same compound, the “result of the corrective treatment (reposition of the ingrown nail)” value with ingrown nail [2] is reported as “substantially the same result”.
